According to patent publication US20230339874A1, “PIPERAZINYL COMPOUNDS AND METHODS FOR TREATING NEMATODE INFECTIONS” (The Governing Council of the University of Toronto, priority 2020, published 2023):
Like-named read-outs stand apart in the source and are kept apart here.

What was measured:
[1] = system: Pristionchus pacificus young adult animals; test: Pristionchus pacificus young adult abnormal locomotory behaviour on solid agar; format: in vivo; settings: 1 h, read-out: P. pacificus, young adult 1 h any phene at 1 h (EC50 (μM))
Strongyloides ratti L3 = format: in vivo; settings: 72 h incubation, 1 replicate
[2] = system: Heligmosomoides polygyrus larval stage 3 (L3) worms; format: in vivo; settings: 72 h incubation, one replicate
rat VAChT = biological target: T1, rat VAChT (Rattus norvegicus, UniProt Q62666); test: Competition binding, displacement of [3H]vesamicol from rat VAChT
T1 sequence (Q62666 1-530): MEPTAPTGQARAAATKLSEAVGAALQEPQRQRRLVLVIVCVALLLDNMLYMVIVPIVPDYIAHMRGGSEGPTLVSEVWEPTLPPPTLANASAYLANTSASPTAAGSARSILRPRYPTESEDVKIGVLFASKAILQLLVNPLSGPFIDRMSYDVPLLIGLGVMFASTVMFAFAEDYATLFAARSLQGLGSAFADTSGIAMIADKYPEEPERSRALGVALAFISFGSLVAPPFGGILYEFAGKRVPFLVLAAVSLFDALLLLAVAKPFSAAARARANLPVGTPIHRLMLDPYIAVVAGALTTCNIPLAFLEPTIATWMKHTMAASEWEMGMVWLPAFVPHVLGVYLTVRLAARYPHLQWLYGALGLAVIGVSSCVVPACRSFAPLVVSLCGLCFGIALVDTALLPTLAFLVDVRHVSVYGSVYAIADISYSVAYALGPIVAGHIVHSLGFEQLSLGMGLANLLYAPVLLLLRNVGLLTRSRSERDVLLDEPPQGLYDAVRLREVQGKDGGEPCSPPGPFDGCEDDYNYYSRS

[3] = system: Danio rerio (zebrafish) embryos; test: Danio rerio (zebrafish) embryo abnormal developmental phenotype; format: in vivo; settings: read-out: D. rerio (zebrafish) any phenotype EC50 (μM)
C. elegans L3 larvae = C. elegans L3 larvae abnormal locomotory behaviour on solid agar; settings: solid agar MYOB + E. coli OP50, mean of 4 replicates; for % C. elegans L3 larvae any phene 1 h (conc.): 1 h exposure; for % C. elegans L3 larvae any phene 6 h (conc.): 6 h exposure; for % C. elegans L3 larvae any phene 24 h (conc.): 24 h exposure
Experimental: 20 animals were scored after either 1, 6 or 24 hours of exposure to drug (as indicated) per replicate. […] Data are reported as the mean % of animals with abnormal phenotype over 4 independent replicates.

D. immitis microfilariae = D. immitis microfilariae immobility assay; format: in vivo; settings: 72 h, read-out: D. immitis microfilariae immobility EC50 (μM)
[4] = system: D. immitis larval stage 3 (L3) worms; test: D. immitis L3 development assay; format: in vivo; settings: 72 h, read-out: D. immitis L3 development EC50 (μM)
[5] = displacement of [3H]vesamicol, rat VAChT expressed in P12 cells, read-out: ratVAChT Ki

Structure (SMILES)	EC50 [1] [µM]	S. ratti L3 % lethality 25 μM (Strongyloides ratti L3) [%]	H. Polygyrus % lethality L3 25 μM [2] [%]	Ki (rat VAChT) [µM]	EC50 [3] [µM]	% C. elegans L3 larvae any phene 1 h (conc.) (C. elegans L3 larvae; 3.75 uM) [%]	% C. elegans L3 larvae any phene 6 h (conc.) (C. elegans L3 larvae; 3.75 uM) [%]	% C. elegans L3 larvae any phene 24 h (conc.) (C. elegans L3 larvae; 3.75 uM) [%]	% C. elegans L3 larvae any phene 1 h (conc.) (C. elegans L3 larvae; 15 uM) [%]	% C. elegans L3 larvae any phene 6 h (conc.) (C. elegans L3 larvae; 15 uM) [%]	% C. elegans L3 larvae any phene 24 h (conc.) (C. elegans L3 larvae; 15 uM) [%]	% C. elegans L3 larvae any phene 1 h (conc.) (C. elegans L3 larvae; 60 uM) [%]	% C. elegans L3 larvae any phene 6 h (conc.) (C. elegans L3 larvae; 60 uM) [%]	% C. elegans L3 larvae any phene 24 h (conc.) (C. elegans L3 larvae; 60 uM) [%]	EC50 (D. immitis microfilariae) [µM]	EC50 [4] [µM]	Ki (rat VAChT; [5]) [µM]
O[C@@H]1CCCC[C@H]1N1CCC(c2ccccc2)CC1 (racemic) [vesamicol, reference compound]	> 60	17.3	0	0.0303	21.1	0.0	0.0	0.0	0.0	0.8	0.0	11.7	1.7	0.0			
Cc1cc(N2CCN(CC3CCCCC3)CC2)ccc1[N+](=O)[O-] [V-b]	> 60				5.1	2.5	0.0	0.0	20.8	3.3	0.0	62.5	41.7	9.2	5.1	14	
Cc1ccc(N2CCN(C3CCC(C)C3)CC2)cc1 (centres unmarked) [VI-a]		28.1	31.6		> 15	58.3	1.7	0.0	98.3	74.2	20.0	100.0	100.0	100.0		> 50	0.411
Cc1ccc(N2CCN(CC3CC4C=CC3C4)CC2)cc1 (centres unmarked) [VI-c]		0	7.6		16.9	33.8	7.5	0.0	100.0	64.2	10.0	100.0	84.2	100.0		> 50	0.159
Cc1ccc(N2CCN(CC3CC=CCC3)CC2)cc1 (centres unmarked) [VI-e]	5.7	31.6	0		32.5	36.7	5.8	0.0	96.7	46.7	5.0	100.0	100.0	99.2			0.208
FC(F)(F)c1cccc(N2CCN(CC3CCCC3)CC2)c1 [VI-k]	> 60	0	34.1		> 60	18.3	0.8	0.0	94.2	30.8	8.3	95.0	70.0	80.8			6.68
